From patent US7465755B2, “Hydrazide derivatives as prostaglandin receptors modulators” (Laboratoires Serono SA, priority 2003, dated 2008)
pEC50, pKi: −log10 of the molar value.

Assays:
[1] = target: T1, h-EP2 (Homo sapiens, UniProt P43116); experiment: EP2 total cAMP assay in HEK293-EBNA cells transfected with pCEP4-hEP2; type: cell-based; settings: 1 hour 37° C.
Procedure: Therefore, the compounds of the invention are tested for their ability in modulating cAMP levels in cells over-expressing EP2 or EP4 (Example 25 below) receptors.
(§1) Compounds of the invention are tested in a total cAMP assay as follows. HEK293-EBNA cells transfected with pCEP4-hEP2 receptors are seeded in 96 well opaque plate (Costar #3917) at 4×10^4 cells per well in 100 μl of culture medium (D-MEM/F12 supplemented with 10% FBS, […] L-glutamine, and 250 μg/ml of hygromycin; all from Gibco BRL) and incubated at 37° C. After overnight incubation, the medium is removed from each well and replaced with 45 μl of assay medium consisted of phenol red free D-MEM/F-12, 0.1% BSA (Gibco BRL) and 0.1 mM 3-isobutyl-1-methyl-xanthine (Sigma). After 15 minutes of incubation at 37° C., 16-16-dimethyl PGE-2 or compounds at desired concentrations in 20 μl of assay medium are added to cells and further incubated at 37° C. for 1 hour. Total cAMP (intra- and extra-cellular) is measured by using a cAMP-screen ELISA System (Tropix, #CS1000).

[2] = target: T2, h-EP4 (Homo sapiens, UniProt P35408); experiment: EP4 receptor binding assay (3H-PGE2 SPA); settings: EP4 receptor membranes, 20 nM 3H-PGE2, pH 6.0, 2 hrs room temperature
Procedure: Compounds of the invention were tested in an EP4 receptor binding assay of the following protocol.
(§2) A mixture containing 20 μg of EP4 receptor membranes, 0.5 mg of wheat germ agglutinin coated PVT-SPA beads, with or without compounds of the invention (25 μl per well) or 10 μM of cold PGE2 at 1% DMSO and 20 nM ^3H-PGE2 in assay buffer containing 25 mM MES, 10 mM MgCl2, 1 mM EDTA, pH 6.0 are incubated in Corning 3600 plates on a plate shaker for 2 hrs at room temperature. ^3H-PGE2 binding is evaluated by counting the plates on the top count using the ^3H SPA dpm2 program. The percentage of binding and Ki value for inhibitors are calculated based on the one site competition parameter using the Graphpad® prism program.

[3] = target: T1, h-EP2; experiment: Prostaglandin EP2 receptor binding assay (3H-PGE2 SPA); settings: EP2 receptor membranes, 20 nM 3H-PGE2, pH 6.0, 2 hrs room temperature
Procedure: Compounds of the invention were tested in an EP2 receptor binding assay of the following protocol. As referred to herein, the term an “EP2 receptor binding assay” designates the following protocol.
as §2, with “EP2” for “EP4”, “compound” for “compounds”

[4] = target: T2, h-EP4; experiment: EP4 total cAMP assay in HEK293-EBNA cells transfected with hEP4; type: cell-based; settings: 1 hour 37° C.
Procedure: as §1, with “pCFP4-hEP4” for “pCEP4-hEP2”

[5] = tested on: hepatitis B viral replication; settings: oral administration, chronic hepatitis B patients; cited from earlier work

T2 sequence (P35408 whole entry): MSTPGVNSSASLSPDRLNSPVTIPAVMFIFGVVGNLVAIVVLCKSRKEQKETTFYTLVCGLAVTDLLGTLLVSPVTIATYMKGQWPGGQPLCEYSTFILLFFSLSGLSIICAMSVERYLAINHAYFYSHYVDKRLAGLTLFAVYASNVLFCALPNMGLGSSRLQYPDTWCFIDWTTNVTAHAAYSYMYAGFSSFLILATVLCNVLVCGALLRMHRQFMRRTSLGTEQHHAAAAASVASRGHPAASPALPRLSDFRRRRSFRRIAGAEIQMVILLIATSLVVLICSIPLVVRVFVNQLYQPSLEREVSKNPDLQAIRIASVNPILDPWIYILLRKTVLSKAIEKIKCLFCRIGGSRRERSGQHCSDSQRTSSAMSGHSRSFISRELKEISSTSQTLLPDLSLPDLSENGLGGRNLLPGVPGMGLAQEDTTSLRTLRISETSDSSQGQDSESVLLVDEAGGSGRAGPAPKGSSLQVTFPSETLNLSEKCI
T1 sequence (P43116 whole entry): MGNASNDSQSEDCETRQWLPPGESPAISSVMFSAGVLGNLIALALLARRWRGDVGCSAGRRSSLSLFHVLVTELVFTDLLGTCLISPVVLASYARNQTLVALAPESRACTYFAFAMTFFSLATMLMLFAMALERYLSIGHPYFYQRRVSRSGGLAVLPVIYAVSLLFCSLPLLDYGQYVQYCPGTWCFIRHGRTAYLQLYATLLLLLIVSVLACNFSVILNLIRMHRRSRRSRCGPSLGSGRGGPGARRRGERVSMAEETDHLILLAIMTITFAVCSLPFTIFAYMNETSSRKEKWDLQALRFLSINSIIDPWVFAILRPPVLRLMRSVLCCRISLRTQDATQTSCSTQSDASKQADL

Structure (SMILES)	pKi [2]	pKi [3]	further results
CCCCCC(O)CCNN(CCc1ccc(C(=O)O)cc1)C(C)=O (stereo not drawn) [Example 2, 4-{2-[1-acetyl-2-(3-hydroxyoctyl)hydrazino]ethyl}benzoic acid]	6.40	4.48	pEC50 [1]: 5.22
CC(=O)N(CCc1ccc(C(=O)O)cc1)NCCC(O)Cc1cccc(C(F)(F)F)c1 (stereo not drawn) [Example 4, 4-[2-(1-acetyl-2-{3hydroxy-4-[3-(trifluoromethyl)phenyl]butyl}hydrazino)ethyl]benzoic acid]	6.28	5.35	pEC50 [4]: 9.40
CC(C)C(=O)N(CCc1ccc(C(=O)O)cc1)NCCC(O)Cc1cccc(C(F)(F)F)c1 (stereo not drawn) [Example 6, 4-[2-(2-{3-hydroxy-4-[3-(trifluoromethyl)phenyl]butyl}-1-isobutyryl hydrazino)ethyl]benzoic acid]	6.48		
CCCCC[C@H](O)/C=C/[C@H]1[C@H](O)CC(=O)[C@@H]1C/C=C\CCCC(=O)O [PGE2, Prostaglandin E2]			patients with sustained loss of viral replication [5]: 47%

Now from value to compound, other results behind:

pKi [2]	pKi [3]	Structure (SMILES)	further results
7.35	5.38	CC(=O)N(CCc1ccc(C(=O)O)cc1)NCCC(O)Cc1cccc(C#Cc2ccccc2)c1 (stereo not drawn) [Example 7, 4-[2-(1-acetyl-2-{3-hydroxy-4-[3-(phenylethynyl)phenyl]butyl}hydrazino)ethyl]benzoic acid]	pEC50 [4]: 9.82
6.94		CC(=O)N(CCc1ccc(C(=O)O)cc1)NCCC(O)Cc1cccc(-c2ccccc2)c1 (stereo not drawn) [Example 8, 4-(2-{1-acetyl-2-[4-(1,1′-biphenyl-3-yl)-3-hydroxybutyl]hydrazino}ethyl)benzoic acid]	
6.83		CC(=O)N(CCc1ccc(C(=O)O)cc1)NCCC(O)Cc1cccc(Br)c1 (stereo not drawn) [Example 9, 4-(2-{1-acetyl-2-[4-(3-bromophenyl)-3-hydroxybutyl]hydrazino}ethyl) benzoic acid]	
7.01		CC(=O)N(CCc1ccc(C(=O)O)cc1)NCCC(O)Cc1cccc(I)c1 (stereo not drawn) [Example 10, 4-(2-{1-acetyl-2-[3-hydroxy-4-(3-iodophenyl)butyl]hydrazino}ethyl)benzoic acid]	
6.88		C#Cc1cccc(CC(O)CCNN(CCc2ccc(C(=O)O)cc2)C(C)=O)c1 (stereo not drawn) [Example 16, 4-(2-{1-acetyl-2-[4-(3ethynylphenyl)-3-hydroxybutyl]hydrazino}ethyl) benzoic acid]	
